Source: US20170328922A1, “METHODS AND PRODUCTS FOR LABELLING LIPIDS” (UNIVERSITY OF SOUTH AUSTRALIA, priority 2014, published 2017)

What was measured:
Format in all cases: binding
[1] = Rhenium molecular probe-lipid overlay (dot blot); set-up: key to interaction with Progesterone (dot blot): ✓ indicates a positive interaction; x indicates no interaction
Experimental: (§1) The experimental protocol probe-lipid overlay was as follows: 50 μM of each lipids was loaded on to PVDF membranes (Perkin Elmer, USA), which were then incubated with molecular probes. PhenCyano and PhenPyridyl were assessed against eleven lipids including; sphingomyelin (Cat # S0756, Sigma Aldrich, USA), sphingosine (Cat # S7049; Sigma Aldrich, USA), L-phosphatidylethanolamine (Cat # P7943, Sigma Aldrich, USA), monosialodanglioside (GM1; Cat # G7641, Sigma Aldrich, USA), oleoly-L-?-lysophosphatidic acid (Cat # L7260, Sigma Aldrich, USA), palmitic acid (Cat # P5917, Sigma Aldrich, USA), sphingomyelin (Cat # S0756, Sigma Aldrich, USA), sphingosine (Cat # S7049; Sigma Aldrich, USA), L-?-phosphatidylethanolamine (Cat # P7943, Sigma Aldrich, USA), monosialodanglioside (GM1; Cat # G7641, Sigma Aldrich, USA), progesterone (Cat #102722, MP Biomedical, USA), ceramide (Cat # C2137; Sigma Aldrich, USA), triacylglycerol mix C2-C10 (Cat #17810, Sigma Aldrich, USA) and cholesteryl acetate (Cat #151114; Sigma Aldrich, USA).
(§2) Lipids were dissolved in ethanol, methanol or isopropanol for loading depending on solubility. Following lipid loading, membranes were left to dry for 20-30 minutes, then they were washed for 10 minutes in cold 10% ethanol, before they were incubated with 10 μM solution of each Rhenium molecular probe in cold 10% ethanol for one hour. Membranes were than washed four times for 10 minutes in cold 10% ethanol prior to imaging. Imaging was performed on an Image Quant Las 4000 (GE, Sweden) luminescent image analyser, with the Rhenium molecular probe being detected by excitation at 460 nm using an epi-blue light source, and detected using an 575 nm ethidium bromide filter.

[2] = Rhenium molecular probe-lipid overlay (dot blot); conditions: FIG. 7 / FIG. 8
Experimental: as §1
(§3) All other molecular probes were assessed against a panel of six lipids including; sphingomyelin (Cat # S0756, Sigma Aldrich, USA), sphingosine (Cat # S7049; Sigma Aldrich, USA), L-?-phosphatidylethanolamine (Cat # P7943, Sigma Aldrich, USA), monosialodanglioside (GM1; Cat # G7641, Sigma Aldrich, USA), sphingomyelin (Cat # S0756, Sigma Aldrich, USA), sphingosine (Cat # S7049; Sigma Aldrich, USA), L-?-phosphatidylethanolamine (Cat # P7943, Sigma Aldrich, USA), monosialodanglioside (GM1; Cat # G7641, Sigma Aldrich, USA) and triacylglycerol mix C2-C10 (Cat #17810, Sigma Aldrich, USA).
as §2

[3] = Rhenium molecular probe-lipid overlay (dot blot); set-up: key to interaction with Ceramide (dot blot): ✓ indicates a positive interaction; x indicates no interaction
Experimental: as §1, §2

[4] = target: albumin (Homo sapiens, UniProt P02768); experiment: Rhenium probe overlay, Example 5; conditions: neither ... nor ... reacted with the probe
Sequence of albumin (P02768 25-609, species assumed): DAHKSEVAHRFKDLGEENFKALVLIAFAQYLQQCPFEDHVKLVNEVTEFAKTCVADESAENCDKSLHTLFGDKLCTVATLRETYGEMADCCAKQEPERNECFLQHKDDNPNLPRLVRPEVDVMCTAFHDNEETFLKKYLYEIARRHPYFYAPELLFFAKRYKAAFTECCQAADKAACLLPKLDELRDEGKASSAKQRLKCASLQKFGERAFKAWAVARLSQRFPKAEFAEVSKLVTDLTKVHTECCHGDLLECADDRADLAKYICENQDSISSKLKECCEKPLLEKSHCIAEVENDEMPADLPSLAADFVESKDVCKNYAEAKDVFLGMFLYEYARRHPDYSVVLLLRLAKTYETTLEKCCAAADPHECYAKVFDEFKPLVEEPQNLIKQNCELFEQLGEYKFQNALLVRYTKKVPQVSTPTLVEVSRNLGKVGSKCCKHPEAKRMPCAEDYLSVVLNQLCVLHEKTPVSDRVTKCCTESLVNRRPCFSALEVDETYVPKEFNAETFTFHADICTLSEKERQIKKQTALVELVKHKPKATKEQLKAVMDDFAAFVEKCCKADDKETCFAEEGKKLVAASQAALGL
Experimental: To determine the binding properties of tricarbonyl-(4-cyanophenyltretrazolato)-phenanthroline-rhenium (I) (Rhenium probe) to various lipids, Rhenium probe-lipid overlay was performed using either lipids spotted onto PDVF membranes (Perkin Elmer, USA) or lipid MicroStrips (Echelon Biosciences Inc., Salt Lake City, Utah). The membranes contained at least 100 pmoles of each lipid in individual spots (supplementary table 1) or 10 μL (each in PBS) of 10% (v/v) glycerol, 1% (v/v) CHAPS, 1% (w/v) SDS, 1% (v/v) Tween20, Ecydsone (10 μg/100 μL), cholesterol (10 μg/100 μL), progesterone (10 μg/100 μL), PBS, or 1% (v/v) ethanol; and were incubated with 0.5 mM of Rhenium probe in 1% (w/v) BSA/PBS for 40 minutes and then washed four times for 10 minutes in PBS. Imaging was performed on an Image Quant Las 4000 (GE, Sweden) luminescent image analyser, with the Rhenium probe being detected by excitation at 460 nm using an epi-blue light source, and detected using an 605 nm ethidium bromide filter.

[5] = Rhenium molecular probe-lipid overlay (dot blot); set-up: key to interaction with Sphingosine (dot blot): ✓ indicates a positive interaction; x indicates no interaction
Experimental: as §1, §3, §2

[6] = Rhenium molecular probe-lipid overlay (dot blot); set-up: key to interaction with Sphingomyline (dot blot): ✓ indicates a positive interaction; x indicates no interaction
Experimental: as §1, §3, §2

[7] = Rhenium molecular probe-lipid overlay (dot blot); set-up: key to interaction with GM1 (dot blot): ✓ indicates a positive interaction; x indicates no interaction
Experimental: as §1, §3, §2

[8] = Rhenium molecular probe-lipid overlay (dot blot); set-up: key to interaction with Cholestrol (dot blot): ✓ indicates a positive interaction; x indicates no interaction
Experimental: as §1, §3, §2

[9] = 10 μM probe, 50 μM lipid on PVDF membrane

In the case of N#Cc1ccc(-c2nn[n]([Re](=[C]=O)(=[C]=O)=[C]=O)n2)cc1.c1cnc2c(c1)ccc1cccnc12 [PhenCyano, Triscarbonyl phenanthroline (4-cyanophenyltetrazolato)Rhenium(I)], the “interaction with Progesterone (dot blot)” value [1, 9] is reported as “✓”, the “affinity towards progesterone, in words” value ([1]; FIG. 7) is reported as “some affinity” and the “interaction with triglycerides, in words” value [2] is reported as “no interaction detected”. For the same compound, the “interaction with Ceramide (dot blot)” value [3, 9] was “x”, the “interaction with ceramide, in words” value ([3]; FIG. 7) was “no interaction detected” and the reactivity with albumin [4] was “Neither”. The “interaction with Sphingosine (dot blot)” value [5, 9] was “✓”, the “affinity towards sphingosine, in words” value ([5]; FIG. 7 / FIG. 8) was “some affinity” and the “interaction with Sphingomyline (dot blot)” value [6, 9] was “✓”. For the same compound, the “affinity towards sphingomyelin, in words” value ([6]; FIG. 7 / FIG. 8) was “some affinity”, the “interaction with GM1 (dot blot)” value [7, 9] was “✓” and the “affinity towards monosialotetrahexosylganglioside (GM1), in words” value ([7]; FIG. 7 / FIG. 8) was “some affinity”. The “interaction with Cholestrol (dot blot)” value [8, 9] was “✓” and the “affinity towards cholesterol, in words” value ([8]; FIG. 7 / FIG. 8) was “some affinity”.
